# pIC50: −log10 of the molar value. Like-named read-outs stand apart in the source and are kept apart here.
# How the values were obtained:
# B-Raf = B-Raf (Homo sapiens (Human), UniProt P15056); experiment: KINOMEscan binding of kinase to its standard ligand
# Description: Kinase enzyme binding activities of compounds disclosed herein may be determined using a proprietary assay which measures active site-directed competition binding to an immobilized ligand (Fabian, M. A. et al., Nature Biotechnol., 2005, 23:329-336). These assays may be conducted by DiscoverX (formerly Ambit; San Diego, Calif.). The percentage inhibition produced by incubation with a test compound may be calculated relative to the non-inhibited control.
# [1] = tested on: intestinal mucosa biopsies from the inflamed regions of the colon of ulcerative colitis (IBD) patients; experiment: Human biopsy assay (assay l); assay type: cell-based; conditions: 1 μg/mL; for cytokine (IL-1β, IL-6 and IL-8) release compared to the DMSO control: 24 hours, biopsies from ulcerative colitis patients; for Cytokine release from biopsies of UC patients: IL-1β release / Cytokine release from biopsies of UC patients: IL-6 release / Cytokine release from biopsies of UC patients: IL-8 release: 24 hr, relative to DMSO control = 100%
# Description: Intestinal mucosa biopsies are obtained from the inflamed regions of the colons of IBD patients. The biopsy material is cut into small pieces (2-3 mm) and placed on steel grids in an organ culture chamber at 37° C. in a 5% CO2/95% O2 atmosphere in serum-free media. DMSO control or test compounds at the desired concentration are added to the tissue and incubated for 24 hr in the organ culture chamber. The supernatant is harvested for determination of IL-6, IL-8, IL-1β and TNFα levels by R&D ELISA.
# [2] = tested on: rat, Cynomolgus macaque or human hepatocytes; experiment: Analysis of metabolites after incubation with hepatocytes; assay type: in vitro ADME; conditions: 10 μM
# Description: Studies were conducted by BioFocus (Saffron Walden, UK) to determine the metabolic fate of the compound of Example 16 following incubation with rat, Cynomolgus macaque or human hepatocytes.
# Separate incubations (n=3) of the compound of Example 16 (10 μM initial concentration) or DMSO control, were performed with cryopreserved hepatocytes from each species (0.5 million cell/mL) at 37° C. for 0, 60 and 90 minutes before termination of reactions and compound extraction with acetonitrile. Sample replicates were pooled prior to analysis.
# Potential metabolites were identified using time-of-flight (TOF) and triple quadruple (TQ) mass spectrometers.
# Syk = Syk (Homo sapiens (Human), UniProt P43405); experiment: Syk enzyme inhibition (FRET, Z-LYTE); assay type: biochemical
# Outline: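 Syk or c-Src enzyme (3000 or 2000 ng/mL solutions) was preincubated 2 h at RT with compound solutions at 1, 0.1, 0.01 or 0.001 µg/mL. Z-LYTE FRET peptide (8 µM solution) and ATP (800 µM solution for c-Src, 60 µM for Syk) were then added for 1 h, followed by protease development for 1 h. Phosphorylation was read as the coumarin/fluorescein emission ratio.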
# GSK 3α = GSK 3α (Homo sapiens (Human), UniProt P49840); experiment: GSK 3α enzyme inhibition (FRET, Z-LYTE; Method 2); assay type: biochemical; conditions: read-out: IC50 Values for Enzyme Inhibition GSK3α
# Sequence of GSK 3α (P49840 whole entry): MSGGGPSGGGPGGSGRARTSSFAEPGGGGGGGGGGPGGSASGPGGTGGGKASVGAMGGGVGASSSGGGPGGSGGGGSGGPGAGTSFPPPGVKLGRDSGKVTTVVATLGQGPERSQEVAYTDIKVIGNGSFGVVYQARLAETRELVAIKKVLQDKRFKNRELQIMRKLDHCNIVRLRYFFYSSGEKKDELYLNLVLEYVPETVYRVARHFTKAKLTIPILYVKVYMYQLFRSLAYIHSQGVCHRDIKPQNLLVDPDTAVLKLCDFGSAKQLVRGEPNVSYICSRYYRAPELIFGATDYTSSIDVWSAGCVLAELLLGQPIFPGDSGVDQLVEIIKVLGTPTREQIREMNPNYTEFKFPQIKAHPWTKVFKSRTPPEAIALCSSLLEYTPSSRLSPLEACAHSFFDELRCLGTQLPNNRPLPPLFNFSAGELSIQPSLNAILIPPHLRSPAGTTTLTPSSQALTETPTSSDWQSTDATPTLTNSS
# Outline: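 Z-LYTE FRET assay: GSK3-α (500 ng/mL stock) preincubated 105 min at RT with compound at 10, 1, 0.1 or 0.01 μg/mL stock. FRET peptide (8 μM stock) and ATP (40 μM stock) were then added for 1 h, followed by protease development for 1 h. Phosphorylation was read as coumarin/fluorescein emission ratio.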
# [3] = Human hepatocyte stability test; assay type: in vitro ADME; conditions: human hepatocytes; for hepatocyte CLint: read-out: Mean intrinsic clearance
# Description: (§1) Assessment of certain in vitro ADME (absorption, distribution, metabolism, and excretion) parameters for certain compounds of the invention was conducted by BioFocus (Saffron Walden, UK).
# [4] = Plasma pharmacokinetics and total colon tissue distribution in mice, single oral administration; assay type: in vivo, mouse (male C57BL/6); conditions: male, C57BL/6, mouse, 5 mg/kg
# Description: Studies were conducted by Sai Life Sciences (Hinjewadi, Pune, India) to investigate the plasma pharmacokinetics and total colon tissue distribution of compounds of the invention. In particular, pharmacokinetic studies were carried out in: • male C57BL/6 mice, following a single oral administration; and • male Wistar rats following a single intravenous or oral administration.
# human hepatocytes = experiment: Human hepatocyte stability test; assay type: in vitro ADME
# Description: as §1
# [5] = plasma, read-out: Median plasma concentration
# [6] = total colon, read-out: Median total colon concentration
# Sequence of B-Raf (P15056 whole entry): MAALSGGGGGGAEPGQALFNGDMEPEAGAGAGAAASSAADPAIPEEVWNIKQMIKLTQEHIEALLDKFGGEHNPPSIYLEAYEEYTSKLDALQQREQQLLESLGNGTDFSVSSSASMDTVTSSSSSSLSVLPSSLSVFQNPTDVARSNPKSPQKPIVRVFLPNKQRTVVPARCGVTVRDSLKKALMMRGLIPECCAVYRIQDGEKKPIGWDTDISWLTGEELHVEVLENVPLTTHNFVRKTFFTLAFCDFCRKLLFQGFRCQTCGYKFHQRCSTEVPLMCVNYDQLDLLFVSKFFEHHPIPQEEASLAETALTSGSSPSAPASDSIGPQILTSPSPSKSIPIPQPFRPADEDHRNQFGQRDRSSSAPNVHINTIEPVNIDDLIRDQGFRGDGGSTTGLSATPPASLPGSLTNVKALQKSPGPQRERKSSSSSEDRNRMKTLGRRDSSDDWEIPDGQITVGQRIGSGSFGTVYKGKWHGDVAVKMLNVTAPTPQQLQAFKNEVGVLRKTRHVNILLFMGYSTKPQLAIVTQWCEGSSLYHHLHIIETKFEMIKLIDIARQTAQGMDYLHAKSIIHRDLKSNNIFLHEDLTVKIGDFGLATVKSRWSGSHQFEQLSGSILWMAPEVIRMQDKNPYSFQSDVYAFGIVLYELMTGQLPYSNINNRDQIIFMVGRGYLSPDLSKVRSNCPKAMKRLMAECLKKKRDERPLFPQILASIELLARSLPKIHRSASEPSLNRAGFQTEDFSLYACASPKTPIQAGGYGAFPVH
Compound,effect on the binding of the kinase B-Raf to its standard ligand (B-Raf),"cytokine (IL-1β, IL-6 and IL-8) release compared to the DMSO control [1]",pIC50 (Syk),pIC50 (GSK 3α),Cytokine release from biopsies of UC patients: IL-1β release [1] [%],Cytokine release from biopsies of UC patients: IL-6 release [1] [%],Cytokine release from biopsies of UC patients: IL-8 release [1] [%],half-life [3] [min],hepatocyte CLint [3] [µL/min/1e6 cells],"concentration at 6 h [4, 5] [ng/mL]","concentration at 1 h [4, 6] [ng/g]","concentration at 2 h [4, 6] [ng/g]","concentration at 4 h [4, 6] [ng/g]","concentration at 6 h [4, 6] [ng/g]","concentration at 8 h [4, 6] [ng/g]","concentration at 12 h [4, 6] [ng/g]","concentration at 24 h [4, 6] [ng/g]",Mean hepatic extraction ratio (human hepatocytes),also measured
C#Cc1cc(Nc2nccc(Oc3ccc(NC(=O)Nc4cc(C(C)(C)C)cc(NS(C)(=O)=O)c4OC)c4ccccc34)n2)cc(C(=O)NCCOCCOCCOC)c1 [Example 16],did not have any significant effect,significantly inhibited,,,,,,,,,,,,,,,,,"number of metabolites resulting from oxidation on the polyethylene glycol chain of the amide moiety ([2]; hepatocytes): 8; products connected to metabolism at the naphthalene moiety ([2]; hepatocytes): no products were noted; number of metabolites formed in hepatocytes ([2]; rat, Cynomolgus macaque or human hepatocytes, 0, 60 and 90 minutes): 9"
"COCCOCCOCCOc1cc(Nc2nccc(Oc3ccc(NC(=O)Nc4cc(C(C)(C)C)cc(NS(C)(=O)=O)c4OC)c4ccccc34)n2)cc(OC)c1 [Example 4, N-(5-(tert-Butyl)-2-methoxy-3-(3-(4-((2-((3-methoxy-5-(2-(2-(2-methoxyethoxy)ethoxy)-ethoxy)phenyl)amino)pyrimidin-4-yl)oxy)naphthalen-1-yl)ureido)phenyl)methanesulfonamide]",did not have any significant effect,significantly inhibited,7.07,5.58,17 ± 21,5 ± 1,2 ± 1,48,29,,,,,,,,,,
"COCCOCCOCCNC(=O)c1cc(Nc2cc(Oc3ccc(NC(=O)Nc4cc(C(C)(C)C)cc(NS(C)(=O)=O)c4OC)c4ccccc34)ccn2)cc(OC)c1 [Example 3, 3-((4-((4-(3-(5-(tert-Butyl)-2-methoxy-3-(methylsulfonamido)phenyl)ureido)naphthalen-1-yl)oxy)pyridin-2-yl)amino)-5-methoxy-N-(2-(2-(2-methoxyethoxy)ethoxy)ethyl)benzamide]",did not have any significant effect,,6.16,5.36,,,,36,39,114,107,274,209,255,278,232,19.1,0.85,
COc1cc(Nc2cc(Oc3ccc(NC(=O)Nc4cc(C(C)(C)C)cc(NS(C)(=O)=O)c4OC)c4ccccc34)ccn2)cc(C(=O)NCCN2CCOCC2)c1 [Example 27],did not have any significant effect,significantly inhibited,6.35,5.35,11 ± 54,48 ± 26,60 ± 15,96,15,,,,,,,,,,
"COc1c(NC(=O)Nc2ccc(Oc3ccnc(Nc4ccccc4)c3)c3ccccc23)cc(C(C)(C)C)cc1C(=O)NC1COC1 [Example 75, 5-(tert-Butyl)-2-methoxy-N-(oxetan-3-yl)-3-(3-(4-((2-(phenylamino)pyridin-4-yl)oxy)-naphthalen-1-yl)ureido)benzamide]",did not have any significant effect,,6.67,5.22,,,,> 200,< 7,0,17.8,56.2,1340,5720,350,391,7.5,<0.50,"concentration at 1 h [4, 5]: 1.8 ng/mL; concentration at 2 h [4, 5]: 1.5 ng/mL; concentration at 4 h [4, 5]: 0 ng/mL; concentration at 8 h [4, 5]: 0 ng/mL; concentration at 12 h [4, 5]: 0 ng/mL; concentration at 24 h [4, 5]: 0 ng/mL"

# — patent US9481648B2, “Kinase inhibitors” (Respivert Limited, priority 2013, dated 2016)
